Laboratory results reported in patent US10696707B2, “Polyene macrolide derivative” (Shionogi & Co., Ltd., priority 2014, dated 2020).
Converted amounts (≈) assume the structure as drawn. Read-outs that look alike come from different tables or passages of the source.

Legend:
Assay type in all cases: cell-based
[1] = system: A. fumigatus ATCC204305; assay: Antifungal activity test, MIC by broth microdilution (CLSI M38-A2); conditions: A. fumigatus ATCC204305, broth microdilution, 35° C., 24-48 hours, 100% inhibition
Procedure: (§1) The Minimum Inhibitory Concentration (MIC) values of the present compound against yeast and filamentous fungi were determined by broth microdilution assay according to the Clinical Laboratory Standards Institute (CLSI) guidelines outlined in documents M27-A3 and M38-A2. The medium used in the assay consisted of RPMI1640 (with glutamine, without bicarbonate) with 2% glucose and 0.165 mol/L morpholinepropanesulfonic acid (MOPS) with pH adjusted to 7.0 using 1 mol/L sodium hydroxide. The present compound was dissolved in dimethyl sulfoxide (DMSO). A series of two-fold dilutions were prepared in DMSO, and then 2 μL of the diluted compound was added to each well in 96-well sterile plates. Each inoculum was prepared by diluting a suspension of Candida spp. or a conidia suspension of Aspergillus spp. suspended in sterile saline solution, and then 200 μL was added to each well to a predetermined concentration using RPMI/MOPS (final concentration for each solution: approximately 1×10^3 cells/mL and approximately 1×10^4 CFU/mL). Plates of Candida spp. and Aspergillus spp. were incubated at 35° C. for 24-48 hours. The MIC was defined as the lowest concentration giving 100% inhibition compared to the growth control.

[2] = system: A. flavus ATCC204304; assay: as above; conditions: A. flavus ATCC204304, broth microdilution, 35° C., 24-48 hours, 100% inhibition
Procedure: as §1

[3] = system: C. albicans ATCC90028; assay: Antifungal activity test, MIC by broth microdilution (CLSI M27-A3); conditions: C. albicans ATCC90028, broth microdilution, 35° C., 24-48 hours, 100% inhibition
Procedure: as §1

[4] = system: red blood cells (5% RBC suspension); assay: Test Example 2-1: in vitro hemolytic activity test (upper limit 50, 80, 100 or 200 μmol/L); conditions: read-out: hemolysis IC50
Procedure: Nephrotoxic potentials of the compounds of the present invention except the compounds whose X is —N(R^F)—CO—X^1 and X^1 is the group represented by formula (III) and T is —N(R^a5)— were investigated by in vitro hemolytic activity test under the condition, in that, the upper limit was 50 μmol/L, 80 μmol/L, 100 μmol/L, or 200 μmol/L as the required concentration to 50% of hemolysis (IC50).
Defibrinated sterile blood was centrifuged at 700×g for 3 minutes and, and the supernatant was removed for 100% of red blood cells. After the cleaning with physiological saline, the washed blood cells was suspended in the medium (Earle's balanced salt sodium, bicarbonate, 0.1 g/L L-glutamine without phenol red), and was diluted by 5% (5% RBC suspension).
The washed blood was diluted by 5% in water for injection (solution of complete hemolysis), and was used as the indication of optical density for complete hemolysis.
The compounds of the present invention solution in DMSO (several and doubling dilutions starting from 2.5 mmol/L, 4 mmol/L, 5 mmol/L, or 10 mmol/L), DMSO as the negative control, and Amphotericin B as the positive control were used, and each 5 μL of these was added in to a well of V-form 96 well type microplate.
Finally, the maximum concentration of the compounds of the present invention solution in DMSO was 50 μmol/L, 80 μmol/L, 100 μmol/L, or 200 μmol/L by adding 245 μL of the medium or 5% RBC suspension into the well.
Two hundred fifty μL of the solution of complete hemolysis was added into another well and the microplate was incubated at 37° C. in 5% of CO2 concentration for an hour.
After the incubation, each 100 μL of supernatants in wells was collected by centrifugation of the microplate at 300×g for 5 minutes and was located on a well of flat-form 96 well type microplate. An absorbance of each supernatant was measured at wavelength of 540 nm.
Percent hemolysis was calculated by using the followed equation. The required concentration to 50% of hemolysis (IC50) was calculated based on the percent hemolysis. […] Hemolysis (%)=(CR−VM)×100÷(VL−VR) Where:
CR: Absorbance of 5% RBC suspension incubated with the compounds of the present invention solution in DMSO
VM: Absorbance of medium incubated with the compounds of the present invention solution in DMSO
VL: Absorbance of solution of complete hemolysis
VR: Absorbance of 5% RBC suspension incubated with DMSO
The “hemolysis method” in the table means any tests the upper concentration of above IC50 are 50 μmol/L, 80 μmol/L, 100 μmol/L or 200 μmol/L. The “>50”, “>80”, “>100” or “>200” in the table means above IC50 value exceeded the each upper concentration.

[5] = Aspergillus fumigatus, read-out: MIC
[6] = Aspergillus flavus, read-out: MIC
[7] = Candida albicans, read-out: MIC
[8] = hemolysis method 50 (upper concentration 50 μmol/L), 5% RBC suspension, 37° C., one hour
[9] = Erythrocyte, 1 h, hemolysis method 50 (upper concentration 50 μmol/L), 5% RBC suspension, 37° C., one hour
[10] = hemolysis method 100 (upper concentration 100 μmol/L), 5% RBC suspension, 37° C., one hour

C[C@@H]1[C@H](O)[C@@H](C)/C=C/C=C/C=C/C=C/C=C/C=C/C=C/[C@H](O[C@@H]2O[C@H](C)[C@@H](O)[C@H](N)[C@@H]2O)C[C@@H]2O[C@](O)(C[C@@H](O)C[C@@H](O)[C@H](O)CC[C@@H](O)C[C@@H](O)CC(=O)O[C@H]1C)C[C@H](O)[C@H]2NC(N)=O [I-36]
MIC [1, 5]: 1 µg/mL (≈ 1.07 µM)
MIC [2, 6]: 1 µg/mL (≈ 1.07 µM)
MIC [3, 7]: 0.25 µg/mL (≈ 0.266 µM)

CONC(=O)N[C@H]1[C@@H]2C[C@@H](O[C@@H]3O[C@H](C)[C@@H](O)[C@H](N)[C@@H]3O)/C=C/C=C/C=C/C=C/C=C/C=C/C=C/[C@H](C)[C@@H](O)[C@@H](C)[C@H](C)OC(=O)C[C@H](O)C[C@H](O)CC[C@@H](O)[C@H](O)C[C@H](O)C[C@](O)(C[C@@H]1O)O2 [I-59]
MIC [1, 5]: 1 µg/mL (≈ 1.03 µM)
MIC [2, 6]: 1 µg/mL (≈ 1.03 µM)
MIC [3, 7]: 0.25 µg/mL (≈ 0.258 µM)

C[C@@H]1[C@H](O)[C@@H](C)/C=C/C=C/C=C/C=C/C=C/C=C/C=C/[C@H](O[C@@H]2O[C@H](C)[C@@H](O)[C@H](N)[C@@H]2O)C[C@@H]2O[C@](O)(C[C@@H](O)C[C@@H](O)[C@H](O)CC[C@@H](O)C[C@@H](O)CC(=O)O[C@H]1C)C[C@H](O)[C@H]2NC(=O)NCCNC(=N)N [I-67]
MIC [1]: 1 µg/mL (≈ 0.977 µM)
MIC [2]: 1 µg/mL (≈ 0.977 µM)
MIC [3]: 0.25 µg/mL (≈ 0.244 µM)

CCN(O)C(=O)N[C@H]1[C@@H]2C[C@@H](O[C@@H]3O[C@H](C)[C@@H](O)[C@H](N)[C@@H]3O)/C=C/C=C/C=C/C=C/C=C/C=C/C=C/[C@H](C)[C@@H](O)[C@@H](C)[C@H](C)OC(=O)C[C@H](O)C[C@H](O)CC[C@@H](O)[C@H](O)C[C@H](O)C[C@](O)(C[C@@H]1O)O2 [I-279]
IC50 [4, 8]: > 50 µM

CCCN(O)C(=O)N[C@H]1[C@@H]2C[C@@H](O[C@@H]3O[C@H](C)[C@@H](O)[C@H](N)[C@@H]3O)/C=C/C=C/C=C/C=C/C=C/C=C/C=C/[C@H](C)[C@@H](O)[C@@H](C)[C@H](C)OC(=O)C[C@H](O)C[C@H](O)CC[C@@H](O)[C@H](O)C[C@H](O)C[C@](O)(C[C@@H]1O)O2 [I-280]
IC50 [4, 8]: > 50 µM

CON(C)C(=O)N[C@H]1[C@@H]2C[C@@H](O[C@@H]3O[C@H](C)[C@@H](O)[C@H](N)[C@@H]3O)/C=C/C=C/C=C/C=C/C=C/C=C/C=C/[C@H](C)[C@@H](O)[C@@H](C)[C@H](C)OC(=O)C[C@H](O)C[C@H](O)CC[C@@H](O)[C@H](O)C[C@H](O)C[C@](O)(C[C@@H]1O)O2 [I-282]
IC50 [4, 8]: > 50 µM

C[C@@H]1[C@H](O)[C@@H](C)/C=C/C=C/C=C/C=C/C=C/C=C/C=C/[C@H](O[C@@H]2O[C@H](C)[C@@H](O)[C@H](N)[C@@H]2O)C[C@@H]2O[C@](O)(C[C@@H](O)C[C@@H](O)[C@H](O)CC[C@@H](O)C[C@@H](O)CC(=O)O[C@H]1C)C[C@H](O)[C@H]2NC(=O)N1CCC1C(=O)O (some centres unmarked) [I-283]
IC50 [4, 8]: > 50 µM

C[C@@H]1[C@H](O)[C@@H](C)/C=C/C=C/C=C/C=C/C=C/C=C/C=C/[C@H](O[C@@H]2O[C@H](C)[C@@H](O)[C@H](N)[C@@H]2O)C[C@@H]2O[C@](O)(C[C@@H](O)C[C@@H](O)[C@H](O)CC[C@@H](O)C[C@@H](O)CC(=O)O[C@H]1C)C[C@H](O)[C@H]2NC(=O)NC(C(=O)O)[C@H](C)O (some centres unmarked) [I-291]
IC50 [4, 8]: > 50 µM

C[C@@H]1[C@H](O)[C@@H](C)/C=C/C=C/C=C/C=C/C=C/C=C/C=C/[C@H](O[C@@H]2O[C@H](C)[C@@H](O)[C@H](N)[C@@H]2O)C[C@@H]2O[C@](O)(C[C@@H](O)C[C@@H](O)[C@H](O)CC[C@@H](O)C[C@@H](O)CC(=O)O[C@H]1C)C[C@H](O)[C@H]2NC(=O)N(O)C[C@@H](O)C(=O)O [I-295]
IC50 [4, 8]: > 50 µM

C[C@@H]1[C@H](O)[C@@H](C)/C=C/C=C/C=C/C=C/C=C/C=C/C=C/[C@H](O[C@@H]2O[C@H](C)[C@@H](O)[C@H](N)[C@@H]2O)C[C@@H]2O[C@](O)(C[C@@H](O)C[C@@H](O)[C@H](O)CC[C@@H](O)C[C@@H](O)CC(=O)O[C@H]1C)C[C@H](O)[C@H]2NC(=O)N1CC(O[C@H]2OC(CO)[C@@H](O)[C@H](O)C2O)C1 (some centres unmarked) [I-303]
IC50 [4, 9]: > 50 µM

CNC(=O)N[C@H]1[C@@H]2C[C@@H](O[C@@H]3O[C@H](C)[C@@H](O)[C@H](NCc4ccc(N(C)C)cc4)[C@@H]3O)/C=C/C=C/C=C/C=C/C=C/C=C/C=C/[C@H](C)[C@@H](O)[C@@H](C)[C@H](C)OC(=O)C[C@H](O)C[C@H](O)CC[C@@H](O)[C@H](O)C[C@H](O)C[C@](O)(C[C@@H]1O)O2 [I-314]
IC50 [4, 10]: > 80 µM

C[C@@H]1[C@H](O)[C@@H](C)/C=C/C=C/C=C/C=C/C=C/C=C/C=C/[C@H](O[C@@H]2O[C@H](C)[C@@H](O)[C@H](NC(=O)CN(C)C)[C@@H]2O)C[C@@H]2O[C@](O)(C[C@@H](O)C[C@@H](O)[C@H](O)CC[C@@H](O)C[C@@H](O)CC(=O)O[C@H]1C)C[C@H](O)[C@H]2NC(=O)NCCN(C)C [I-327]
IC50 [4, 10]: > 50 µM

C[C@@H]1[C@H](O)[C@@H](C)/C=C/C=C/C=C/C=C/C=C/C=C/C=C/[C@H](O[C@@H]2O[C@H](C)[C@@H](O)[C@H](NCc3cccnc3N)[C@@H]2O)C[C@@H]2O[C@](O)(C[C@@H](O)C[C@@H](O)[C@H](O)CC[C@@H](O)C[C@@H](O)CC(=O)O[C@H]1C)C[C@H](O)[C@H]2NC(=O)NCCN(C)C [I-328]
IC50 [4, 10]: > 50 µM

C[C@@H]1[C@H](O)[C@@H](C)/C=C/C=C/C=C/C=C/C=C/C=C/C=C/[C@H](O[C@@H]2O[C@H](C)[C@@H](O)[C@H](NC[C@@]3(O)OC[C@@H](O)[C@H](O)[C@@H]3O)[C@@H]2O)C[C@@H]2O[C@](O)(C[C@@H](O)C[C@@H](O)[C@H](O)CC[C@@H](O)C[C@@H](O)CC(=O)O[C@H]1C)C[C@H](O)[C@H]2NC(=O)NC[C@H](O)CO [I-368]
IC50 [4, 9]: > 50 µM

C[C@@H]1[C@H](O)[C@@H](C)/C=C/C=C/C=C/C=C/C=C/C=C/C=C/[C@H](O[C@@H]2O[C@H](C)[C@@H](O)[C@H](N)[C@@H]2O)C[C@@H]2O[C@](O)(C[C@@H](O)C[C@@H](O)[C@H](O)CC[C@@H](O)C[C@@H](O)CC(=O)O[C@H]1C)C[C@H](O)[C@H]2c1nc(-c2ccc(N(C)C)cc2)no1 [I-390]
IC50 ([4]; Erythrocyte, 1 h): > 50 µM

C[C@@H]1[C@H](O)[C@@H](C)/C=C/C=C/C=C/C=C/C=C/C=C/C=C/[C@H](O[C@@H]2O[C@H](C)[C@@H](O)[C@H](N)[C@@H]2O)C[C@@H]2O[C@](O)(C[C@@H](O)C[C@@H](O)[C@H](O)CC[C@@H](O)C[C@@H](O)CC(=O)O[C@H]1C)C[C@H](O)[C@H]2c1nc(-c2ccccc2)no1 [I-391]
IC50 [4, 9]: > 50 µM

C[C@@H]1[C@H](O)[C@@H](C)/C=C/C=C/C=C/C=C/C=C/C=C/C=C/[C@H](O[C@@H]2O[C@H](C)[C@@H](O)[C@H](N)[C@@H]2O)C[C@@H]2O[C@](O)(C[C@@H](O)C[C@@H](O)[C@H](O)CC[C@@H](O)C[C@@H](O)CC(=O)O[C@H]1C)C[C@H](O)[C@H]2c1nc(-c2ccncc2)no1 [I-392]
IC50 [4, 9]: > 50 µM
